Experimental data taken from PubChem BioAssay AID1918942 (Molecular Pharmacology Branch, DTP, NCI, 2023).

System: 743489-274-T-PDC complex spheroid viability
Assay: Anticancer human tumor 743489-274-T-PDC patient-derived renal cell carcinoma cell line growth inhibition
Details: for IC50: curve of first compound; for viability, T/C: stronger effect = lower value
Method in brief: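 Complex spheroids of tumor cells with HUVEC and human MSCs, exposed to iadademstat combined with other agents. Each agent tested in half-log steps from near clinical Cmax (else 10 microM top), DMSO ≤0.25%.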

[1] = second compound 0.1 µM, first compound 0.000316 µM
[2] = second compound 0.1 µM, first compound 0.001 µM
[3] = second compound 0.1 µM, first compound 0.00316 µM
[4] = second compound 0.1 µM, first compound 0.01 µM
[5] = second compound 0.1 µM, first compound 0.0316 µM
[6] = second compound 0.1 µM, first compound 0.1 µM
[7] = second compound 0.316 µM, first compound 0.000316 µM
[8] = second compound 0.316 µM, first compound 0.001 µM
[9] = second compound 0.316 µM, first compound 0.00316 µM
[10] = second compound 0.316 µM, first compound 0.01 µM
[11] = second compound 0.316 µM, first compound 0.0316 µM
[12] = second compound 0.316 µM, first compound 0.1 µM
[13] = second compound 1 µM, first compound 0.000316 µM
[14] = second compound 1 µM, first compound 0.001 µM
[15] = second compound 1 µM, first compound 0.00316 µM
[16] = second compound 1 µM, first compound 0.01 µM
[17] = second compound 1 µM, first compound 0.0316 µM
[18] = second compound 1 µM, first compound 0.1 µM
[19] = second compound 3.16 µM, first compound 0.000316 µM
[20] = second compound 3.16 µM, first compound 0.001 µM
[21] = second compound 3.16 µM, first compound 0.00316 µM
[22] = second compound 3.16 µM, first compound 0.01 µM
[23] = second compound 3.16 µM, first compound 0.0316 µM
[24] = second compound 3.16 µM, first compound 0.1 µM
[25] = second compound 10 µM, first compound 0.000316 µM
[26] = second compound 10 µM, first compound 0.001 µM
[27] = second compound 10 µM, first compound 0.00316 µM
[28] = second compound 10 µM, first compound 0.01 µM
[29] = second compound 10 µM, first compound 0.0316 µM
[30] = second compound 10 µM, first compound 0.1 µM
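Also: spheroids exposed to compounds for 7 days before readout.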
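For viability, T/C in this document: 100% = DMSO vehicle control wells.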

Structure (SMILES)	IC50 (second compound 0.1 µM) [nM]	IC50 (second compound 0.316 µM) [nM]	IC50 (second compound 1 µM) [nM]	IC50 (second compound 3.16 µM) [nM]	IC50 (second compound 10 µM) [nM]	viability, T/C [3] [%]	viability, T/C [4] [%]	viability, T/C [5] [%]	viability, T/C [6] [%]	viability, T/C [9] [%]	viability, T/C [10] [%]	viability, T/C [11] [%]	viability, T/C [12] [%]	viability, T/C [15] [%]	viability, T/C [16] [%]	viability, T/C [17] [%]	viability, T/C [18] [%]	viability, T/C [21] [%]	viability, T/C [22] [%]	viability, T/C [23] [%]	also measured
CC(C)CC(NC(=O)C(Cc1ccccc1)NC(=O)c1cnccn1)B(O)O (stereo not given) + NC1CC1c1ccc(-c2cccc(O)c2)cc1	7.45	7.39	7.95	7.95	6.77	93.9	33.9	32.3	24.2	111	25.3	30.7	28.5	102	35.9	36.8	19.4	105	36.5	28.5	viability, T/C [1]: 122%; viability, T/C [2]: 102%; viability, T/C [7]: 119%; viability, T/C [8]: 109%; viability, T/C [13]: 113%; viability, T/C [14]: 104%; viability, T/C [19]: 123%; viability, T/C [20]: 136%; viability, T/C [24]: 20.7%; viability, T/C [25]: 110%; viability, T/C [26]: 118%; viability, T/C [27]: 98.7%; viability, T/C [28]: 25%; viability, T/C [29]: 25.5%; viability, T/C [30]: 14.5%
CC(C)CC(NC(=O)CNC(=O)c1cc(Cl)ccc1Cl)B1OC(=O)CC(CC(=O)O)(C(=O)O)O1 (stereo not given) + NC1CC1c1ccc(-c2cccc(O)c2)cc1	83.1	> 100	84.5	> 100	49.9	97.8	80.7	74.3	45	94.5	77.6	76.5	52.8	104	80	66.1	46.6	102	68.2	60.8	viability, T/C [1]: 105%; viability, T/C [2]: 114%; viability, T/C [7]: 102%; viability, T/C [8]: 102%; viability, T/C [13]: 103%; viability, T/C [14]: 106%; viability, T/C [19]: 90%; viability, T/C [20]: 105%; viability, T/C [24]: 45.2%; viability, T/C [25]: 95.8%; viability, T/C [26]: 108%; viability, T/C [27]: 101%; viability, T/C [28]: 80.1%; viability, T/C [29]: 59.7%; viability, T/C [30]: 37.7%
COc1cc(Nc2ncc3c(n2)-c2ccc(Cl)cc2C(c2c(F)cccc2OC)=NC3)ccc1C(=O)O + NC1CC1c1ccc(-c2cccc(O)c2)cc1	> 1000	> 1000	> 1000	> 1000	> 1000	103	105	82.8	72.2	97.7	100	85.4	90	111	91.4	84.3	74.3	92.9	85.7	89.5	viability, T/C (second compound 0.1 µM, first compound 0.316 µM): 82.4%; viability, T/C (second compound 0.1 µM, first compound 1 µM): 81.5%; viability, T/C (second compound 0.316 µM, first compound 0.316 µM): 81.2%; viability, T/C (second compound 0.316 µM, first compound 1 µM): 80.5%; viability, T/C (second compound 1 µM, first compound 0.316 µM): 74%; viability, T/C (second compound 1 µM, first compound 1 µM): 82.5%; viability, T/C [24]: 77.6%; viability, T/C (second compound 3.16 µM, first compound 0.316 µM): 72.8%; viability, T/C (second compound 3.16 µM, first compound 1 µM): 79%; viability, T/C [27]: 100%; viability, T/C [28]: 102%; viability, T/C [29]: 85.3%; viability, T/C [30]: 83.5%; viability, T/C (second compound 10 µM, first compound 0.316 µM): 82.9%; viability, T/C (second compound 10 µM, first compound 1 µM): 78.4%
